pEC50: −log10 of the molar value. “Also recorded” adds a separate entry of the source.
Experiments:
S. hermonthica seeds [1] = assay: Striga hermonthica seed germination bioassay; format: in vivo; conditions: for pEC50: Striga hermonthica, concentrations 10^–5 to 10^–12 M; for germination activity, order among the chlorophenyl compounds: species not given
Procedure: Parasitic weed seeds’ (S. hermonthica and P. ramosa) germination activity was studied as described previously ([Jamil et al., 2012]). Six pre-conditioned seed discs were placed in a 90 mm Petri dish containing a filter paper ring wetted with 0.9 ml sterile MilliQ water. Then 50 μl of SL analog solution (10^–5–10^–12 M) was applied on each of the six discs, for each concentration. GR24 solutions with equal concentrations and sterile MilliQ water were included as a positive and negative control, respectively. After application, seeds of S. hermonthica and P. ramosa were incubated in dark at 30 °C for 2 d and at 25 °C for 4 d, respectively. Germination (seeds with radicle emerging through the seed coat) was scored under a binocular microscope, and germination rate (%) was calculated. Statistical analyses were carried out using the statistical software package R (version 3.2.2). Dose–response curves and half-maximum effective concentrations (EC50) were calculated to determine optimum amount of MPs. The synthetic strigolactone analog GR24 was used as reference to estimate efficacy of selected compounds. EC50 and estimated response were calculated using the drc package (https://cran.r-project.org/web/packages/drc/) with a four parameter logistic curve (dose–response curve) ([Ritz and Streibig, 2005]).

[2] = Chemical stability in aqueous solution (UHPLC); format: physicochemical; conditions: aqueous solution pH 6.8, 21 °C, 50 μg ml^−1, monitored at 24 h intervals up to 3 weeks
Procedure: Aqueous solutions of MPs (50 μg ml^−1; pH 6.8) were incubated at 21 °C in amber HPLC vials (adapted from [de Saint Germain et al., 2016]). For sample preparation, 50 μl of an acetone solution (1 mg ml^−1) was diluted to the final concentration with methanol (425 μl), water (500 μl) and 25 μl of 1-indanol (1.0 mg ml^−1 solution in acetone) as internal standard. […] Compounds eluted from the column were detected with a diode array detector. The relative quantity of remaining (non-degraded) product was determined by comparison with the internal standard. Stability was monitored at 24 h intervals up to 3 weeks.

Arabidopsis seedlings [3] = assay: Arabidopsis hypocotyl elongation assay; format: in vivo; conditions: 1.0 μM, continuous red light
Procedure: Sterilized Arabidopsis seeds were sown on half-strength MS (with 0.5% sucrose+1% agar, 0.5 g l^−1 MES, pH 5.7) plates supplemented with MPs or GR24 (at 1.0 μM). Plates were stored at 4 °C in darkness for 3 d. To initiate germination, plates were exposed to continuous white light for 24 h, then transferred to continuous monochromatic red light (20 μmol m^−2 s^−1, 22 °C) conditions for another 4 d. For hypocotyl length measurement, at least 30 seedlings were measured using the freely available ImageJ software (http://rsbweb.nih.gov/ij/) after taking digital photographs. A monochromatic red light source was applied as described previously ([Wu and Yang, 2010]). Light flow rates were measured using a Li250 quantum photometer (Li-Cor, Lincoln, NE, USA).

rice d10 mutant = assay: Rice micro tillering bioassay, d10 mutant; format: in vivo; conditions: 2.5 μM
Procedure: Rice seeds (WT, d3, d10) were surface-sterilized by washing with 70% ethanol for 1 min and then with 2.5% sodium hypochlorite for 15 min. Seeds were then rinsed thoroughly with sterile MilliQ water and incubated in water for 2 d at 30 °C in the dark. Pre-germinated seeds were transferred to filter papers containing half-strength MS medium in 90 mm Petri dishes and incubated at 30 °C under fluorescent white light (130–180 μmol m^−2 s^−1) for 1 week. Seven-day-old seedlings were transferred to 50 ml falcon tubes (one seedling per tube) containing modified half-strength Hoagland nutrient solution and grown in greenhouse. Plants were treated with MPs at 2.5 μM to 2.5 × 10^–7 μM, using GR24 as positive control. The compounds were applied six times, twice a week. Number of tillers per plant, plant height and fresh biomass were measured at final harvest.
Statistical analyses were carried out using the statistical software package R (version 3.2.2). Dose–response curves and half-maximum effective concentrations (EC50) were calculated to determine optimum amount of MPs. The synthetic strigolactone analog GR24 was used as reference to estimate efficacy of selected compounds. EC50 and estimated response were calculated using the drc package (https://cran.r-project.org/web/packages/drc/) with a four parameter logistic curve (dose–response curve) ([Ritz and Streibig, 2005]).

P. ramosa seeds [4] = tested on: P. ramosa seeds; design: method as in Wigchert et al., 1999; conditions: ref Wigchert et al., 1999; cited from earlier work
S. hermonthica seeds [5] = conditions: cited from earlier work
P. ramosa seeds [6] = assay: P. ramosa seed germination bioassay; format: in vivo, Phelipanche ramosa; conditions: 1.0 μM
Procedure: Parasitic weed seeds’ (S. hermonthica and P. ramosa) germination activity was studied as described previously ([Jamil et al., 2012]). Six pre-conditioned seed discs were placed in a 90 mm Petri dish containing a filter paper ring wetted with 0.9 ml sterile MilliQ water. Then 50 μl of SL analog solution (10^–5–10^–12 M) was applied on each of the six discs, for each concentration. GR24 solutions with equal concentrations and sterile MilliQ water were included as a positive and negative control, respectively. After application, seeds of S. hermonthica and P. ramosa were incubated in dark at 30 °C for 2 d and at 25 °C for 4 d, respectively. Germination (seeds with radicle emerging through the seed coat) was scored under a binocular microscope, and germination rate (%) was calculated.

Arabidopsis seedlings [7] = tested on: Arabidopsis seedlings; design: method as in Jia et al. (2016); conditions: ref Jia et al., 2016; cited from earlier work
parasite seed = conditions: ref Fukui et al., 2013; cited from earlier work
Arabidopsis seedlings [8] = assay: Arabidopsis lateral root density; format: in vivo; conditions: 1.0 μM, 8-day-old seedlings
Procedure: Sterilized Arabidopsis seeds were sown on half-strength MS (with 0.5% sucrose+1% agar, 0.5 g l^−1 MES, pH 5.7) plates supplemented with GR24 or MPs (at 1.0 μM). Plates were stored at 4 °C in darkness for 3 d and then vertically grown at 22 °C in a Percival incubator under long day condition (16 h at 22 °C/8 h at 16 °C day/night, 60% relative humidity, 60–70 μmol m^−2 s^−1 white light) for 8 d. For determining the effect on lateral root density and primary root length, at least 30 seedlings were measured using ImageJ software after scanning roots.

In the case of `COC(=O)C(=COC1C=C(C)C(=O)O1)c1cccc2ccccc12` (centres unmarked) [MP11], the “S. hermonthica germination rate” value (S. hermonthica seeds [1]; 1.0 μM) was 32%, the pEC50 (S. hermonthica seeds [1]) was 5.77 and the “stability in comparison with GR24” value [2] was “very similar to that of GR24”.
In the case of `COC(=O)/C(=C/OC1C=C(C)C(=O)O1)c1ccc(C)cc1` (centres unmarked) [MP4], the “stability in comparison with GR24” value [2] was “more stable than GR24”.
With `CC1=CC(O/C=C2/C(=O)OCc3ccccc32)OC1=O` (centres unmarked) [MP5] the “stability in comparison with GR24” value [2] was “more stable than GR24; also recorded: most stable compound”.
In the case of `COC(=O)/C(=C/OC1C=C(C)C(=O)O1)c1ccc(O)cc1` (centres unmarked) [MP15], the “inhibition of hypocotyl growth” value (Arabidopsis seedlings [3]) was “Apart from MP12 and MP15, all MPs showed significant inhibition” and the “stability in comparison with GR24” value [2] was “slightly less stable than GR24”.
For `CC1=CC(O/C=C(/C=O)c2ccc([N+](=O)[O-])cc2)OC1=O` (centres unmarked) [MP12, (E)-3-(4-methyl-5-oxo-2,5-dihydrofuran-2-yloxy)-2-(4-nitrophenyl)acrylaldehyde], the “inhibition of hypocotyl growth” value (Arabidopsis seedlings [3]) was “Apart from MP12 and MP15, all MPs showed significant inhibition” and the “stability in comparison with GR24” value [2] was “quite unstable and not detectable even after only 24 h”.
For `COC(=O)/C(=C/OC1C=C(C)C(=O)O1)c1cccc(F)c1` (centres unmarked) [MP6], the “growth, senescence symptoms and biomass of rice seedlings” value (shortened to “growth, senescence symptoms and biomass”) (rice d10 mutant) was “stunted the growth and caused senescence symptoms”.
For `COC(=O)/C(=C/O[C@H]1C=C(C)C(=O)O1)N1C(=O)c2ccccc2C1=O` [Nijmegen-1], the “seed germination in P. ramosa” value (P. ramosa seeds [4]) is given as “potent inducer” and the “EC50 for S. hermonthica germination relative to GR24” value (S. hermonthica seeds [5]; ref Wigchert et al., 1999) is given as “three orders of magnitude higher than GR24”.
In the case of `COC(=O)/C(=C/OC1C=C(C)C(=O)O1)c1ccc(OC)cc1` (centres unmarked) [MP14], the “stability in comparison with GR24” value [2] was “very similar to that of GR24”.
In the case of `COC(=O)/C(=C/OC1C=C(C)C(=O)O1)c1ccccc1[N+](=O)[O-]` (centres unmarked) [MP2], the “growth, senescence symptoms and biomass” value (rice d10 mutant) was “stunted the growth and caused senescence symptoms”, the “P. ramosa germination activity” value (P. ramosa seeds [6]) was “much higher activity” and the pEC50 (S. hermonthica seeds [1]) was 7.49. For the same molecule, the “stability in comparison with GR24” value [2] was “more stable than GR24”.
In the case of `CC1=CC(O/C=C(/C)c2ccc([N+](=O)[O-])cc2)OC1=O` (centres unmarked) [nitro-phenlactone], the “activity in stimulating S. hermonthica germination” value (S. hermonthica seeds [5]; ref Jia et al., 2016) is given as “very weak activity” and the “effect on lateral root density” value (Arabidopsis seedlings [7]) is given as “did not affect lateral root density”.
For `CC1=CC(Oc2ccc(Br)cc2)OC1=O` (centres unmarked) [4-Br-debranone], the “activity in inducing parasite seed germination” value (parasite seed) is listed as “moderate activity”.
In the case of `COC(=O)/C(=C/OC1C=C(C)C(=O)O1)c1ccccc1Cl` (centres unmarked) [MP9], the “growth, senescence symptoms and biomass” value (rice d10 mutant) was “stunted the growth and caused senescence symptoms”, the “germination activity, order among the chlorophenyl compounds” value (S. hermonthica seeds [1]) was “highest germination activity with MP7 (Cl in para position) followed by MP9 (ortho position) and MP8 (meta position)” and the “stability in comparison with GR24” value [2] was “very similar to that of GR24”.
For `COC(=O)/C(=C/OC1C=C(C)C(=O)O1)c1cccc(Cl)c1` (centres unmarked) [MP8], the “reduction of lateral root number/density” value (Arabidopsis seedlings [8]) was “slightly more active than GR24”, the “P. ramosa germination activity” value (P. ramosa seeds [6]) was “much higher activity” and the “germination activity, order among the chlorophenyl compounds” value (S. hermonthica seeds [1]) was “highest germination activity with MP7 (Cl in para position) followed by MP9 (ortho position) and MP8 (meta position)”. The “stability in comparison with GR24” value [2] was “very similar to that of GR24”.
For `COC(=O)/C(=C\OC1C=C(C)C(=O)O1)c1ccccc1Cl` (centres unmarked) [MP10], the “growth, senescence symptoms and biomass” value (rice d10 mutant) was “stunted the growth and caused senescence symptoms” and the “stability in comparison with GR24” value [2] was “more stable than GR24”.
